Data published in patent US9328083B2, “2-aminated methylene or 2-esterified methylene tanshinone derivatives, and preparation method and application thereof” (HANGZHOU BENSHENG PHARMACEUTICAL CO., LTD., priority 2011, dated 2016).
In brackets after ≈: the same amount, converted by molar mass.

Assays:
[1] = test system: RPMI8226 (multiple myeloma); test: MTT growth inhibition of multiple myeloma cells, 72 h; format: cell-based, human; conditions: Homo sapiens, RPMI 8226, 72 h; for IC50: read-out: IC50; for IC90: read-out: IC90
Method in brief: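 Viability read by MTT after 72 h at 37° C, 5% CO2: compounds from a 10 mg/mL DMSO stock were diluted in medium and added at several concentrations to 6000 RPMI8226 cells per well in 1640 medium plus 10% FBS.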

[2] = test system: Jurkat (acute lymphoblastic leukemia, ALL); test: MTT growth inhibition of leukemia cells, 72 h; format: cell-based, human; conditions: Homo sapiens, 72 h; for IC50: read-out: IC50; for IC90: read-out: IC90
Method in brief: (§1)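 Test compounds, dissolved in DMSO and further diluted with culture medium, go onto cells seeded the day before at 6000 per well in RPMI-1640/10% FBS. Plates stay 72 h in a 5% CO2 incubator at 37 °C, and cell viability is then assessed by the MTT method.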

[3] = test system: Kasumi-1 (acute myeloid leukemia M2 type, AML-M2); test: MTT growth inhibition of leukemia cells, 72 h; format: cell-based, human; conditions: Homo sapiens, Kasumi-1, 72 h; for IC50: read-out: IC50; for IC90: read-out: IC90
Method in brief: as §1

[4] = test system: H9 (acute lymphoblastic leukemia, ALL); test: MTT growth inhibition of leukemia cells, 72 h; format: cell-based, human; conditions: Homo sapiens, H9, 72 h; for IC50: read-out: IC50; for IC90: read-out: IC90
Method in brief: as §1

[5] = test system: K562/adr (drug-resistant, chronic myeloid leukemia, CML); test: MTT growth inhibition of leukemia cells, 72 h; format: cell-based, human; conditions: Homo sapiens, K562/Adr; for IC50: read-out: IC50; for IC90: read-out: IC90
Method in brief: as §1

[6] = test system: NB4 (acute promyelocytic leukemia, AML); test: MTT growth inhibition of leukemia cells, 72 h; format: cell-based, human; conditions: Homo sapiens, NB4, 72 h; for IC50: read-out: IC50; for IC90: read-out: IC90
Method in brief: as §1

[7] = test system: Hep G2 (human liver cancer cell); test: MTT growth inhibition of human solid tumor cells, 72 h; format: cell-based; conditions: Homo sapiens, HepG2, Hep G2, 72 h; for IC50: read-out: IC50; for IC90: read-out: IC90
Method in brief: (§2)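 Growth medium: DMEM High Glucose, 10% FBS. Seeding density 4000 cells per well, preincubated one day at 37° C/5% CO2 before dosing with derivatives over a concentration range.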

PC-3 (prostate cancer) = test: as above; format: cell-based; conditions: Homo sapiens, PC-3, 72 h; for IC50: read-out: IC50; for IC90: read-out: IC90
Method in brief: as §2

[8] = test system: Hela (human cervical cancer cell); test: as above; format: cell-based; conditions: Homo sapiens, HeLa, 72 h; for IC50: read-out: IC50; for IC90: read-out: IC90
Method in brief: as §2

[9] = test system: SK-OV-3 (ovarian cancer cell); test: as above; format: cell-based; conditions: Homo sapiens, SK-OV-3, 72 h; for IC50: read-out: IC50; for IC90: read-out: IC90
Method in brief: as §2

[10] = test system: U87 MG (malignant glioma cell); test: as above; format: cell-based; conditions: Homo sapiens, U-87 MG, U87-MG, 72 h; for IC50: read-out: IC50; for IC90: read-out: IC90
Method in brief: as §2

A549 (human lung cancer) = test: as above; format: cell-based; conditions: Homo sapiens, A549, 72 h; for IC50: read-out: IC50; for IC90: read-out: IC90
Method in brief: as §2

[11] = test system: CaES-17 (esophageal cancer cell); test: as above; format: cell-based; conditions: Homo sapiens, CaEs17, CaEs-17, 72 h; for IC50: read-out: IC50; for IC90: read-out: IC90
Method in brief: as §2

[12] = test system: MGC 803 (human gastric cancer cell); test: as above; format: cell-based; conditions: Homo sapiens, MGC-803, 72 h; for IC50: read-out: IC50; for IC90: read-out: IC90
Method in brief: as §2

[13] = test system: RKO (human colon adenocarcinoma cell); test: as above; format: cell-based; conditions: Homo sapiens; for IC50: read-out: IC50; for IC90: read-out: IC90
Method in brief: as §2

MG63 (osteosarcoma) = test: as above; format: cell-based; conditions: Homo sapiens, MG-63, 72 h; for IC50: read-out: IC50; for IC90: read-out: IC90
Method in brief: as §2

[14] = test system: PANC-1 (pancreatic cancer); test: as above; format: cell-based; conditions: Homo sapiens, PANC-1, 72 h; for IC50: read-out: IC50; for IC90: read-out: IC90
Method in brief: as §2

[15] = test system: CNE (nasopharyngeal carcinoma cell); test: as above; format: cell-based; conditions: Homo sapiens; for IC50: read-out: IC50; for IC90: read-out: IC90
Method in brief: as §2

[16] = test system: Hep-2 (laryngeal carcinoma); test: as above; format: cell-based; conditions: Homo sapiens, HEp-2, 72 h; for IC50: read-out: IC50; for IC90: read-out: IC90
Method in brief: as §2

[17] = test system: Becap37 (human breast cancer cell); test: as above; format: cell-based; conditions: Homo sapiens, Becap-37, 72 h; for IC50: read-out: IC50; for IC90: read-out: IC90
Method in brief: as §2

| IC50 [1] [µg/mL] | IC90 [1] [µg/mL] | IC50 [2] [µg/mL] | IC90 [2] [µg/mL] | IC50 [3] [µg/mL] | IC90 [3] [µg/mL] | IC50 [4] [µg/mL] | IC90 [4] [µg/mL] | IC50 [5] [µg/mL] | IC90 [5] [µg/mL] | IC50 [6] [µg/mL] | IC90 [6] [µg/mL] | IC50 [7] [µg/mL] | IC90 [7] [µg/mL] | IC50 (PC-3 (prostate cancer)) [µg/mL] | IC90 (PC-3 (prostate cancer)) [µg/mL] | IC50 [8] [µg/mL] | IC90 [8] [µg/mL] | IC50 [9] [µg/mL] | IC90 [9] [µg/mL] | SMILES | also measured |
| --- | --- | --- | --- | --- | --- | --- | --- | --- | --- | --- | --- | --- | --- | --- | --- | --- | --- | --- | --- | --- | --- |
| 3.72 (≈ 9.24 µM) | 7.13 (≈ 17.7 µM) | 1.78 (≈ 4.42 µM) | 5.91 (≈ 14.7 µM) | 0.89 (≈ 2.21 µM) | 1.9 (≈ 4.72 µM) | 4.11 (≈ 10.2 µM) | 10.5 (≈ 26.1 µM) | 1.5 (≈ 3.73 µM) | 2.79 (≈ 6.93 µM) | 0.94 (≈ 2.34 µM) | 1.9 (≈ 4.72 µM) | 3.8 (≈ 9.44 µM) | 7.96 (≈ 19.8 µM) | 9.3 (≈ 23.1 µM) | 11.2 (≈ 27.8 µM) | 1.46 (≈ 3.63 µM) | 3.58 (≈ 8.89 µM) | 2.53 (≈ 6.29 µM) | 3.84 (≈ 9.54 µM) | Cc1c(CN2CCCN(C)CC2)oc2c1C(=O)C(=O)c1c-2ccc2c(C)cccc12 [BS-TA-B12] | IC50 [10]: 1.16 µg/mL (≈ 2.88 µM); IC90 [10]: 3.4 µg/mL (≈ 8.45 µM); IC50 (A549 (human lung cancer)): 1.65 µg/mL (≈ 4.1 µM); IC90 (A549 (human lung cancer)): 4.33 µg/mL (≈ 10.8 µM); IC50 [11]: 0.73 µg/mL (≈ 1.81 µM); IC90 [11]: 1.97 µg/mL (≈ 4.89 µM); IC50 [12]: 2.48 µg/mL (≈ 6.16 µM); IC90 [12]: 5.05 µg/mL (≈ 12.5 µM); IC50 [13]: 0.7 µg/mL (≈ 1.74 µM); IC90 [13]: 5.26 µg/mL (≈ 13.1 µM); IC50 (MG63 (osteosarcoma)): 3.37 µg/mL (≈ 8.37 µM); IC90 (MG63 (osteosarcoma)): 5.49 µg/mL (≈ 13.6 µM); IC50 [14]: 1.06 µg/mL (≈ 2.63 µM); IC90 [14]: 4.16 µg/mL (≈ 10.3 µM); IC50 [15]: 0.45 µg/mL (≈ 1.12 µM); IC90 [15]: 0.62 µg/mL (≈ 1.54 µM); IC50 [16]: 4.01 µg/mL (≈ 9.96 µM); IC90 [16]: 9.08 µg/mL (≈ 22.6 µM); IC50 [17]: 3.34 µg/mL (≈ 8.3 µM); IC90 [17]: 7.38 µg/mL (≈ 18.3 µM) |
| 8 (≈ 20.5 µM) | > 16 | 6.66 (≈ 17.1 µM) | > 16 | 0.6 (≈ 1.54 µM) | 1.99 (≈ 5.11 µM) | 2 (≈ 5.13 µM) | 11.9 (≈ 30.6 µM) | 0.77 (≈ 1.98 µM) | 1.82 (≈ 4.67 µM) | 3.59 (≈ 9.22 µM) | 13.7 (≈ 35.2 µM) | 16 (≈ 41.1 µM) | > 16 | 14.7 (≈ 37.6 µM) | > 16 | 5.28 (≈ 13.6 µM) | 84.2 (≈ 216 µM) | > 16 | > 16 | Cc1c(CNCCC(C)(C)C)oc2c1C(=O)C(=O)c1c-2ccc2c(C)cccc12 [BS-TA-B14] | IC50 [10]: 3.85 µg/mL (≈ 9.88 µM); IC90 [10]: > 16 µg/mL; IC50 (A549 (human lung cancer)): 1.75 µg/mL (≈ 4.49 µM); IC90 (A549 (human lung cancer)): 9 µg/mL (≈ 23.1 µM); IC50 [11]: > 16 µg/mL; IC90 [11]: > 16 µg/mL; IC50 [12]: 14.4 µg/mL (≈ 37 µM); IC90 [12]: > 16 µg/mL; IC50 [13]: 3.36 µg/mL (≈ 8.63 µM); IC90 [13]: > 16 µg/mL; IC50 (MG63 (osteosarcoma)): 4.86 µg/mL (≈ 12.5 µM); IC90 (MG63 (osteosarcoma)): > 16 µg/mL; IC50 [14]: 1.88 µg/mL (≈ 4.83 µM); IC90 [14]: 6.19 µg/mL (≈ 15.9 µM); IC50 [15]: > 16 µg/mL; IC90 [15]: > 16 µg/mL; IC50 [16]: 14.3 µg/mL (≈ 36.7 µM); IC90 [16]: 35.2 µg/mL (≈ 90.5 µM); IC50 [17]: 4.6 µg/mL (≈ 11.8 µM); IC90 [17]: > 16 µg/mL |
